The text below walks through data of PMC9386795 (ACS Omega, 2022).

Experiment [1] relates to methicillin susceptible SA (MSSA), S. aureus ATCC 29213. Briefly: Broth microdilution MIC assay against MSSA. The following applies: for MIC: Staphylococcus aureus, ATCC29213|MSSA, read-out: MSSA MIC.
For experiment [2], the system named is wild-type PA (WTPA), P. aeruginosa ATCC 9027. Briefly: Broth microdilution MIC assay against WTPA. The following applies: for MIC: Pseudomonas aeruginosa, ATCC9027, read-out: WTPA MIC. In general terms: Broth dilution looks for growth in wells or tubes with falling amounts of substance.
The target of the next experiment is PA ATP synthase (Pseudomonas aeruginosa, UniProt Q9HT15). The experiment in a line: ATP synthesis assay with PA inverted membrane vesicles. The format is biochemical. The following applies: for inhibition of PA ATP synthase (in words): PA inverted membrane vesicles; for extent of inhibition of ATP synthesis activity at highest concentration: 128 μg/mL compound.
The subject of experiment [3] is electron transport chain in PA vesicles. The experiment in a line: Electron transport chain activity. The format is biochemical, Pseudomonas aeruginosa. The following applies: 64 μg/mL compound, NADH.
For experiment [4], the system named is PA. The following applies: cited from earlier work.
Experiment [5] has as its system PA. The experiment in a line: Adjuvant assay with pentamidine, PA growth in liquid culture. The format is cell-based, Pseudomonas aeruginosa. The following applies: 50 and 100 μM pentamidine, compared to compound alone.
Where [6] appears, read: n = 3, >85% reduction in growth at OD 590 nm.

As a reminder, the MIC is the least concentration at which growth counts as inhibited. One may read the IC50 as the concentration needed to halve the response being measured. A high value points to weaker potency in that assay.

In brackets after ≈: the same amount, converted by molar mass. Entries after “also recorded” stand apart in the source; their conditions may differ.

On to `CSc1nc2ccccc2cc1C=O` [Compound 6, 2-(Methylthio)quinoline-3-carbaldehyde], for which the MIC in experiment [1] amounted to 64 µg/mL (≈ 315 µM).
Consider `CCOC(=O)C1=C(C)NC(=O)NC1c1cc2ccccc2nc1OC` (stereo not shown) [Compound 9, Ethyl 4-(2-Methoxyquinolin-3-yl)-6-methyl-2-oxo-1,2,3,4-tetrahydropyrimidine-5-carboxylate], for which the minimum inhibitory concentration (MIC) in experiment [2] and in experiment [1] was over 128 µg/mL throughout.
For the compound `COc1nc2ccccc2cc1/C=N/NC(=O)c1ccccc1` [Compound 10, (E)-N′-((2-Methoxyquinolin-3-yl)methylene)benzohydrazide], the MIC in experiment [2] was over 128 µg/mL. Besides, at PA ATP synthase, the half-maximal inhibitory concentration (IC50) lay in the range of 6.55 to 55.7 µM and the “inhibition of PA ATP synthase (in words)” value is listed as “dose-dependent inhibition”. For the same compound, in experiment [3], the “H+ gradient formation by the electron transport chain” value is reported as “significant inhibition”. Also, the minimal inhibitory concentration (MIC) in experiment [1] is over 128 µg/mL.
Turning to `COc1nc2ccccc2cc1/C=N/N=C/c1cc2ccccc2nc1OC` [Compound 11, (1E,2E)-1,2-Bis((2-methoxyquinolin-3-yl)methylene)hydrazine], the minimum inhibitory concentration (MIC) with PA [4] (PA) was 80 µg/mL (≈ 216 µM); in experiment [2], over 128 µg/mL; in experiment [1], over 128 µg/mL.
In the case of `COc1nc2ccccc2cc1/C=N/NC(N)=S` [Compound 12, (E)-2-((2-Methoxyquinolin-3-yl)methylene)hydrazine-1-carbothioamide], the “activity against PA (in words)” value in the experiment with PA [4] (compared with 11) was “weaker activity”. The MIC in experiment [2] and in experiment [1] was over 128 µg/mL throughout.
Take `COC(=O)[C@H](C)NCc1cc2ccccc2nc1OC` [Compound 14, Methyl ((2-Methoxyquinolin-3-yl)methyl)-L-alaninate]: the minimal inhibitory concentration (MIC) in experiment [2] and in experiment [1] was over 128 µg/mL throughout.
As for `COC(=O)[C@@H](NCc1cc2ccccc2nc1OCc1ccccc1)C(C)C` [Compound 15, Methyl ((2-(Benzyloxy)quinolin-3-yl)methyl)-L-valinate], the MIC in experiment [2] was over 256 µg/mL. Moreover, the “reduction of PA growth when co-dosed with pentamidine (in words)” value (“reduction of PA growth when co-dosed” below) with PA [5] was “no significant reduction in growth”. For the same compound, at PA ATP synthase, the “extent of inhibition of ATP synthesis activity at highest concentration” value (shortened to “extent of inhibition … at highest concentration”) was “not complete” and the “inhibition of PA ATP synthase (in words)” value is reported as “dose-dependent inhibition; also recorded: active”. For the same compound, the minimum inhibitory concentration (MIC) in experiment [1] was over 128 µg/mL.
For the compound `COC(=O)[C@@H](CCSC)NCc1cc2ccccc2nc1OC` [Compound 16, Methyl ((2-Methoxyquinolin-3-yl)methyl)-D-methioninate], the MIC in experiment [2] and in experiment [1] was over 128 µg/mL throughout.
`COC(=O)[C@@H](CCSC)NCc1cc2ccccc2nc1SC` [Compound 17, Methyl ((2-(Methylthio)quinolin-3-yl)methyl)-D-methioninate]: the MIC in experiment [2] was over 256 µg/mL. For the same compound, in the experiment on PA [5], the “reduction of PA growth when co-dosed” value is on record as “statistically significant reduction”. Also, at PA ATP synthase, the “extent of inhibition … at highest concentration” value is on record as “not complete” and the “inhibition of PA ATP synthase (in words)” value is reported as “dose-dependent inhibition”. Further, in experiment [1], the minimal inhibitory concentration (MIC) turned out to be 64 µg/mL (≈ 183 µM).
The like results for `COC(=O)[C@H](Cc1c[nH]c2ccccc12)NCc1cc2ccccc2nc1OC` [Compound 18, Methyl ((2-Methoxyquinolin-3-yl)methyl)-L-tryptophanate] were, in that order, over 256 µg/mL, “statistically significant reduction; also recorded: largest reduction in PA growth of the set”, “complete inhibition”, “dose-dependent inhibition” and over 128 µg/mL.
With `COC(=O)[C@H](Cc1c[nH]c2ccccc12)NCc1cc2ccccc2nc1SC` [Compound 19, Methyl ((2-(Methylthio)quinolin-3-yl)methyl)-L-tryptophanate], in experiment [2], the minimum inhibitory concentration (MIC) was over 256 µg/mL. For the same compound, the “reduction of PA growth when co-dosed” value in the experiment on PA [5] was “statistically significant reduction”. Further, at PA ATP synthase, the “extent of inhibition … at highest concentration” value is on record as “not complete” and the “inhibition of PA ATP synthase (in words)” value is reported as “dose-dependent inhibition”. The MIC in experiment [1] is over 128 µg/mL.
Turning to `COC(=O)[C@H](Cc1ccc(O)cc1)NCc1cc2ccccc2nc1OC` [Compound 20, Methyl ((2-Methoxyquinolin-3-yl)methyl)-L-tyrosinate], the MIC in experiment [2] and in experiment [1] was over 128 µg/mL each time.
Regarding `COC(=O)[C@H](Cc1ccc(O)cc1)NCc1cc2ccccc2nc1OCc1ccccc1` [Compound 21, Methyl ((2-(Benzyloxy)quinolin-3-yl)methyl)-L-tyrosinate], the MIC in experiment [2] and in experiment [1] was over 128 µg/mL each time. Also, on PA ATP synthase, the “inhibition of PA ATP synthase (in words)” value is “not active”.
Take `COC(=O)[C@H](Cc1ccc(O)cc1)NCc1cc2ccccc2nc1SC` [Compound 22, Methyl ((2-(Methylthio)quinolin-3-yl)methyl)-L-tyrosinate]: the MIC in experiment [2] is over 256 µg/mL. Moreover, the “reduction of PA growth when co-dosed” value in the experiment on PA [5] is given as “statistically significant reduction”. Moreover, on PA ATP synthase, the “extent of inhibition … at highest concentration” value is “complete inhibition” and the “inhibition of PA ATP synthase (in words)” value is on record as “dose-dependent inhibition; also recorded: active; also recorded: strongest activity”. Also, in experiment [1], the MIC is over 128 µg/mL.
For the compound `COC(=O)[C@@H](Cc1c[nH]cn1)NCc1cc2ccccc2nc1OC` [Compound 23, Methyl ((2-Methoxyquinolin-3-yl)methyl)-D-histidinate], the MIC in experiment [2] and in experiment [1] was over 128 µg/mL each time.
On to “(E)-2-(2-((2-Methoxyquinolin-3-yl)methylene)hydrazineyl)-4-phenylthiazole [Compound 13]”, for which, in experiment [2] (setting [6]), the “WTPA MIC” value is over 128 µg/mL. In addition, in experiment [1] (setting [6]), the “MSSA MIC” value is over 128 µg/mL.
